Data from PMC10703885 (Cell Death & Disease, 2023).
Read-outs that look alike come from different tables or passages of the source.

Columns and labels:
HCT116 cells [1] = assay: CCK-8 cell viability assay; type: cell-based; details: for IC50: Homo sapiens
Protocol: (§1) The cells were cultured in 96-well plates at a density of 5 × 10^3 cells/well. Cell viability was assessed with CCK-8 Kit at indicated time post-treatment according to the manufacturer’s instructions. To estimate the viability of the cells, the absorbance of 450 nm (OD450) was measured with a Microplate Reader (BIO-TEK, Inc., Winooski, VT, United States). The IC50 value was calculated by GraphPad Prism 8.0 (San Diego, CA, United States) software.

HT29 cells [2] = assay: CCK-8 cell viability assay; type: cell-based; details: Homo sapiens, HT-29, 72 h
Protocol: as §1

[3] = Body weight of xenograft mice; type: in vivo, BALB/c nude mice; details: 10 mg/kg/d ip over 21 days
Protocol: (§2) Male BALB/c nude mice (5–6 weeks) were purchased from the Jiesijie Experimental Animal Co. Ltd (Shanghai, China). All mice were maintained under SPF conditions and at constant temperature (25 °C) and relative humidity (65%) with a 12 h light/dark cycle. HCT116 cells (1 × 10^6) were inoculated into 6–7 weeks-old mice subcutaneously. Tumor volumes were evaluated by calipers and calculated using the standard formula: volume = length × width^2 × 0.5. Once tumor volume exceeded approximately 100 mm^3. […] Tumor volume was measured every 2 days. The protocols for animal care and euthanasia were approved by the Institutional Animal Care and Use Committee of Shanghai Ocean University (Shanghai, China).

[4] = system: acetylated H3/H4 protein in HT29 cells; assay: Western blot of acetylated H3/H4; type: cell-based; details: HT29, 0.2, 0.5 and 1 μM, 24 h, compared with SAHA 1 μM
Protocol: (§3) Western blot analysis was performed as in our previous reports. The cells were lysed in RIPA buffer with a complete protease inhibitor cocktail for 10 min on ice followed by centrifugation at 4 °C. The concentration of proteins was determined by the BCA Protein Kit (TIANGEN, Shanghai, China). Equal amounts of total proteins were resuspended in loading buffer, boiled at 100 °C for 5 min, and separated by 10–15% […] gel electrophoresis (SDS-PAGE). Proteins were transferred onto PVDF membranes (Merck Millipore, #IPFL00010, Germany), then the membranes were blocked with 5% non-fat dry milk, and the membranes were incubated with indicated primary antibodies diluted in BSA buffer, overnight at 4 °C. The membranes were washed three times in TBST followed by 1 h incubation with secondary antibodies conjugated with horseradish peroxidase (HRP) at room temperature. Then the membranes were washed before enhanced chemiluminescence. Immunoblots were visualized with the Bio-Rad ChemiDoc XRS system. Quantification was directly performed on the blot using the Image Lab software.

[5] = system: acetylated H3/H4 protein in HCT116 cells; assay: Western blot of acetylated H3/H4; type: cell-based; details: HCT116, 0.2, 0.5 and 1 μM, 24 h, compared with SAHA 1 μM
Protocol: as §3

[6] = system: normal renal epithelial 293T cells; assay: CCK-8 cell viability assay (normal cells); type: cell-based; details: low concentration of HR488B (0.1-1 μM), 72 h
Protocol: as §1

HCT116 cells [7] = assay: Colony formation assay; type: cell-based; details: HCT116, 0.2, 0.5 and 1 μM, 14 days
Protocol: (§4) The culture medium was refreshed every other day. Cells were then continuously incubated in a new fresh medium for 10–14 days, the colonies were fixed with methanol for 15 min, stained with 0.5% crystal violet for 15 min, and photographed. Colonies were manually counted using ImageJ software.

HT29 cells [8] = assay: Colony formation assay; type: cell-based; details: HT29, 0.2, 0.5 and 1 μM, 14 days
Protocol: as §4

HCT116 xenograft = HCT116 xenograft model in nude mice; type: in vivo, BALB/c nude mice
Protocol: as §2

Row | Compound | inhibitory effect on cell viability (in-house HDACi library screen) (HCT116 cells [1]; HCT116 cells, 2.5 μM, 72 h, CCK-8) | IC50 (HCT116 cells [1]; HCT-116, HCT116 cells, 72 h, CCK-8, read-out: IC50) [nM] | IC50 (HT29 cells [2]) [nM] | body weight of mice [3] | acetylation of H3 and H4 [4] | acetylation of H3 and H4 [5] | cellular toxicity of 293T cells [6] | number and size of colonies (HCT116 cells [7]) | number and size of colonies (HT29 cells [8]) | average tumor weight (HCT116 xenograft; 10 mg/kg ip, compared with control and SAHA-treated group) | tumor volume (HCT116 xenograft; 10 mg/kg/d ip over 21 days, compared with control group and SAHA treatment group) | IC50 (HCT116 cells [1]; HCT-116, 72 h) [nM]
1 | COc1ccc(N(Cc2nc(-c3ccccc3Cl)cs2)C(=O)CCCCCC(=O)NO)cc1 [HR488B] | optimum inhibitory effect | 170 | 590 | did not decrease notably | significantly increased the acetylation of H3 and H4 in a dose-dependent manner | significantly increased the acetylation of H3 and H4 in a dose-dependent manner | did not observe any significant cellular toxicity | obviously reduced the number and size of the colonies | obviously reduced the number and size of the colonies | obviously lower | marked reduction in tumor volume | 
2 | O=C(CCCCCCC(=O)Nc1ccccc1)NO [SAHA, reference compound] |  |  |  | did not decrease notably |  |  |  |  |  |  |  | 2130
